# Experimental data: paper PMC8140105 (Scientific Reports, 2021)
# Assays:
# [1] = Multiple time regression (MTR) analysis, blood-to-brain influx; format: in vivo, ICR-CD-1 mice
# Experimental: Briefly, 0.1 µmol of the lyophilized peptide was dissolved in 100 µL of phosphate buffer (pH 7.4, 25 mM). A Iodo-Gen coated tube (Thermo Scientific, Merelbeke, Belgium) was first of all rinsed with 1 mL of phosphate buffer. Subsequently, 50 µL of sodium iodide solution (1.1 µmol/mL) and 1 mCi of Na^125I solution (Perking Elmer, Zaventem, Belgium) were transferred into this Iodo-Gen coated tube. The oxidation reaction was allowed to proceed for six minutes at room temperature, after which the iodonium solution was transferred to 50 µL of peptide solution (1 mM). The iodination reaction of the peptide was allowed to proceed for another six minutes at room temperature. Finally, the iodinated peptide was purified using a silver filter (Thermo Scientific, Merelbeke, Belgium).
# In order to determine whether the peptide could enter the brain, in vivo multiple time regression (MTR) analysis was performed. ICR-CD-1 mice were anesthetized intraperitoneally using a 40% urethane solution (3 g/kg). […] At specified time points after injection (i.e. 1, 3, 5, 10, 12.5 and 15 min, with start and end in duplicate), blood was obtained from the carotid artery followed by decapitation of the mouse. The isolated brain was weighed and radioactivity measured in a gamma counter for 5 min (Wallac Wizard automatic gamma counter, Perkin Elmer, Shelton, CT, USA), as well as from 50 µL serum, which was obtained by centrifuging the collected blood at 10,000g for 15 min at 21 °C. The linear and biphasic modeling of the multiple time regression analysis was performed as previously described.
# BV-2 microglia cells = assay: IL-6 and TNFα determination (ELISA); format: cell-based, murine; conditions: BV-2 cells, increasing concentrations, 20 h, ELISA of cell-free supernatant, n = 6
# Experimental: BV-2 cells were a kind gift from Prof. Alba Minelli and were grown in RPMI medium supplemented with 10% fetal bovine serum (FBS) and 1% penicillin-streptromycin solution (Life Technologies, Belgium). The cells were cultured in culture flasks (Greiner, Belgium) in an incubator set at 37 °C and 5% CO2. When confluent, cells were detached using a cell scraper and diluted 1:20 approximately every 4 days. Experiments were performed in serum-free DMEM without phenol red.
# To investigate the microglia activating properties of the peptide, IL-6 and TNFα levels were determined in cell-free supernatants of BV-2 microglia cells after treatment. BV-2 cells (2 × 10^5 cells/well) were seeded in 24-well plates and treated with peptide for 20 h. ELISA was performed according to the supplier’s protocol (eBioscience, Vienna, Austria). Briefly, after incubation with biotinylated detection antibody, avidin-HRP conjugate and subsequently chromogenic tetramethylbenzidine (TMB) substrate were added. Absorbance was measured at 450 nm and 570 nm using the Multiskan Ascent 354 microplate reader (Thermofisher, Waltham, USA). Concentrations were determined using the standard curve generated using known concentrations of TNFα and IL-6.
# BV-2 cells [2] = assay: qPCR of IL-6 mRNA; format: cell-based, murine; conditions: 10 µM, n = 6, Mann–Whitney U test
# Experimental: To confirm the observed ELISA results at mRNA level, a qPCR experiment was performed. After incubation of the BV-2 cells with PapRIV or controls, cells were lysed in RLT buffer (Qiagen, Hilden, Germany) supplemented with 1% β-mercaptoethanol. The lysate was stored at − 80 °C until RNA extraction. RNA was extracted using the RNeasy Mini Kit (Qiagen, Hilden, Germany). DNAse steps were included in the protocol to remove possible DNA contamination. RNA purity and concentration were assessed using spectrophotometry (NanoDrop), while RNA quality was evaluated using capillary electrophoresis (Fragment Analyzer). After extraction, the RNA was immediately converted to cDNA which was stored at − 20 °C until qPCR analysis. Ppia and Rer were chosen as suitable control genes based on the GeNorm and Normfinder algorithms[79],[80]. Used primers are given in Table 5. qPCR cycling was performed using a LightCycler 480 (Roche), with Cq values being calculated using the second derivative threshold method.
# BV-2 cells [3] = assay: Morphological analysis (ameboid versus branched cells); format: cell-based, murine; conditions: 20 h, n = 6
# Experimental: We investigated the morphology since microglia change their morphology from a branched structure to a more round, ameboid structure after activation. BV-2 cells were seeded in 1 × 10^4 cells/well in a 24-well plate (360 µL); this way direct cell–cell contacts, which have an influence on morphology, are avoided. Four hours post-seeding, cells were treated with 40 µL peptide, placebo (H2O), medium or positive control (LPS 1 µg/mL). For the assessment of the morphology, one picture in the center of each well (100 × magnification) was taken after twenty hours with an Olympus CKX53 phase-contrast microscope equipped with an XC30 CCD camera (Olympus NV, Antwerp, Belgium). The number of branched and ameboid cells was counted with the cell counter plugin of ImageJ.
# SH-SY5Y neuroblast cells = assay: MTT assay on SH-SY5Y neuroblast cells; format: cell-based; conditions: n = 6
# Experimental: SH-SY5Y neuroblast cells (Sigma-Aldrich, Diegem, Belgium) were grown in F12:MEM (50/50 v/v) medium supplemented with 15% FBS, 1% non-essential amino acids (NEAA), 2 mM L-Glutamine and 1% penicillin/streptomycin solution (Life Technologies, Belgium) in an incubator set at 37 °C and 5% CO2. When confluent, cells were detached using 0.25% Trypsin–EDTA.
# SH-SY5Y cells were seeded at a density of 5 × 10^4 cells/well in a 96-well plate and incubated for 24 h. Next, medium was removed and replaced by 200 µL conditioned medium of BV-2 cells which were treated for 20 h with PapRIV. After 24 h incubation, 20 µL MTT reagent (12 mM) was added and incubated for 3 h. Finally, the medium was removed and replaced by 150 µL DMSO and measured at 570 nm with a microplate reader (Thermofisher, Waltham, USA).
substance,measurement,setting,value
"SDLPFEH [PapRIV, heptapeptide (SDLPFEH) quorum sensing peptide originating from the Bacillus cereus group; synthetic, purchased from GL Biochem]",K1,"[1]; 125I-labelled, i.v. (jugular vein), mice, 1–15 min, biphasic model, mean ± standard error",6.95 ± 6.25 µL/g/min
same,initial brain influx rate (Ki),"[1]; 125I-labelled, i.v., mice, biphasic model",6.95 µL/g/min
same,"Tissue brain distribution volume, Vg","[1]; 125I-labelled, i.v., mice, biphasic model, mean ± standard error",35.70 ± 61.73 µL/g
same,brain influx class according to the classification system of Stalmans et al.,[1]; classification by influx rate,very high brain influx
same,IL-6 production,BV-2 microglia cells,induced
same,TNFα production,BV-2 microglia cells,induced
same,IL-6 mRNA expression,BV-2 cells [2],increased
same,fraction of ameboid cells,BV-2 cells [3],increased
same,viability of SH-SY5Y cells with conditioned medium of treated BV-2 cells,"SH-SY5Y neuroblast cells; BV-2 treated 20 h, conditioned medium on SH-SY5Y 24 h",significant decreased viability
same,toxicity of direct treatment of SH-SY5Y cells,SH-SY5Y neuroblast cells; direct peptide treatment,no significant toxic effects
